Data set [1] has as its system B16-F10. The experiment in a line: Cytotoxicity against mouse B16-F10 cells incubated for 48 hrs under dark condition by CCK-8 assay. It is filed as functional, cell-based. As to conditions: B16-F10, 48 h.
A short description of data set [2]: Stability of compound in PBS at pH 7.4 at 1 to 100 uM incubated for 48 hrs by HPLC analysis. The settings on record: buffer, pH 7.4, 48 h, dose 1-100 µM. In kind it is physicochemical.
Data set [3] relates to HepG2. As to the kind of experiment: Induction of apoptosis in human HepG2 cells assessed as necrotic cells at 5 uM incubated for 24 hrs under 10 J/cm2 light irradiation by annexin V-FITC/propidium iodide staining based flow cytometry (Rvb= 6 %). It is filed as functional. For orientation: A flow cytometer gives signals particle by particle.
For data set [4], the system named is HepG2. As to the kind of experiment: Induction of autophagy in human HepG2 cells assessed as increase in lysosome number at 5 uM incubated for 24 hrs by LysoTracker dye based confocal microscopy. In kind it is functional, cell-based.
The test system of data set [5] is HepG2. As to the kind of experiment: Induction of autophagy in human HepG2 cells assessed as increase in autophagosome number by measuring rosy fluorescence at 5 uM incubated for 24 hrs under 1 J/cm2 light irradiation by DAPRed dye based confocal microscopy. It is filed as functional, cell-based.
The subject of data set [6] is HepG2. As to the kind of experiment: Induction of cell cycle arrest in human HepG2 cells assessed as accumulation of cells at G1 phase at 0.5 uM incubated for 24 hrs under 10 J/cm2 light irradiation by propidium iodide staining based flow cytometry (Rvb= 67.74 %). In kind it is functional.
Data set [7] deals with HepG2. As to the kind of experiment: Antitumor activity against human HepG2 cells xenografted in BALB/c mouse assessed as increase in survival day at 2 mg/kg,iv followed by 90 J/cm2 light irradiation after compound administration on day 0, 5 and 10. It is filed as functional.

Active and inactive are the calls of the source. No cut-off for these calls is given here.

For the compound `C=Cc1c(C)c2cc3nc(c(CC(=O)NCCOCCOCCOCCC(=O)OCCN4CCN(c5cc(Nc6ncc(C(=O)Nc7c(C)cccc7Cl)s6)nc(C)n5)CC4)c4[nH]c(cc5nc(cc1[nH]2)C(C)=C5CC)c(C)c4C(=O)O)[C@@H](CCC(=O)O)[C@@H]3C`, the 50% inhibitory concentration (IC50) (in general, the midpoint of a concentration-inhibition curve) in data set [1] amounted to 38.3 µM. In addition, the Stability result in data set [2] is on record as “Stable”. In addition, the Activity in data set [3] was 5.98%; in data set [6], 64.79%. Also, the outcome in data set [4] and in data set [5] was Active. Besides, the Survival in data set [7] is 53 days.
